Experimental data from patent US20090081197A1 (Palatin Technologies, Inc., priority 2007, published 2009).

Assays:
MC1-R [1] = target: T1, MC1-R (Mus musculus, UniProt Q01727); experiment: cAMP functional activity assay in B-16 mouse melanoma cells; type: cell-based; conditions: 1 μM concentration where stated
T1 construct: B-16 mouse melanoma cells (containing MC1-R); endogenous in cells
Description: (§1) General method for EC50 determination in functional activity assay. […] Data analysis and EC50 values were determined using nonlinear regression analysis with Prism Graph-Pad software.
(§2) Functional status. The agonist/antagonist status with respect to MC1-R, MC-3R, MC4-R and MC5-R of certain compounds of the invention was determined. Antagonistic activity was determined by measuring the inhibition of α-MSH-induced or NDP-α-MSH-induced cAMP levels following exposure to graded doses of compounds as in the preceding descriptions.

MC5-R [2] = target: T2, MC5-R (Homo sapiens, UniProt P33032); experiment: cAMP functional activity assay in HEK-293 cells; type: cell-based; set-up: expressed in transfected cells; host or cells: HEK-293; conditions: 1 μM concentration where stated
T2 sequence (P33032 whole entry): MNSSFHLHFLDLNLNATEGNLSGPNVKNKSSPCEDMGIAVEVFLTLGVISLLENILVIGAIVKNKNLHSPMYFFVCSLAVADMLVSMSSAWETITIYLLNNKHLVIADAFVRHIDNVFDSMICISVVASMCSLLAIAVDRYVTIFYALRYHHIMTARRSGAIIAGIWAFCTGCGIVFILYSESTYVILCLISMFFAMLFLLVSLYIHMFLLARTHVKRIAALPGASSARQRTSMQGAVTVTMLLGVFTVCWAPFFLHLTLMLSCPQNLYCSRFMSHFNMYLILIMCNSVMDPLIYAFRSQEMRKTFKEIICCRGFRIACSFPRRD
Description: as §1, §2

MC3-R [3] = target: T3, MC3-R (Homo sapiens, UniProt P41968); experiment: cAMP functional activity assay in HEK-293 cells; type: cell-based; set-up: expressed in transfected cells; host or cells: HEK-293; conditions: 1 μM concentration where stated
T3 sequence (P41968 whole entry): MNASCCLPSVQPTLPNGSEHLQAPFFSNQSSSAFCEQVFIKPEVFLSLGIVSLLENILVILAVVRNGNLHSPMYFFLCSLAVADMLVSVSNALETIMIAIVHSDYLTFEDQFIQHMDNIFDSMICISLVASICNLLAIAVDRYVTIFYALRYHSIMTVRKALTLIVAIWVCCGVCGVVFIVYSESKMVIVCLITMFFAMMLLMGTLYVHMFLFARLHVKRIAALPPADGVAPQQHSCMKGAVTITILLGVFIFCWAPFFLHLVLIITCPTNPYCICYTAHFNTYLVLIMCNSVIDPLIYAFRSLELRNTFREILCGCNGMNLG
Description: as §1, §2

MC4-R [4] = target: T4, MC4-R (Homo sapiens, UniProt P32245); experiment: cAMP functional activity assay in HEK-293 cells, normal system; type: cell-based; set-up: expressed in transfected cells; host or cells: HEK-293; conditions: for intrinsic activity at MC4-R in a normal system: normal receptor density system, NDP-α-MSH = 1.0; for functional status at MC4-R in cAMP assay: normal system, 1 μM concentration where stated
T4 sequence (P32245 whole entry): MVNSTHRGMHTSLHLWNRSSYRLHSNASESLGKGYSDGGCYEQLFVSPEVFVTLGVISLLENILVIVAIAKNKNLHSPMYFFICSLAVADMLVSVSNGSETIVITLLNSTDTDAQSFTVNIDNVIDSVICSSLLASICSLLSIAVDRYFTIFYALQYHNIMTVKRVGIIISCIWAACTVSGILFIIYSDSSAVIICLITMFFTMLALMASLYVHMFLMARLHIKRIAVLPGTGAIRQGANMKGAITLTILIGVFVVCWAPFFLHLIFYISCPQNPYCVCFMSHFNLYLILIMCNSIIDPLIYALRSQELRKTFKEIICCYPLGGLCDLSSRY

MC4-R [5] = target: T4, MC4-R; experiment: Competitive inhibition assay using [I^125]-NDP-α-MSH, hMC4-R membranes; type: binding; set-up: host or cells: TREx-293 (HEK-293 stably expressing Tet repressor); conditions: 1 μM test compound; read-out: Inhibition at 1 μM (NDP-α-MSH) In Normal System, MC4-R
Summary of the method: (§3)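 Tracer was 0.4 nM for MC3-R and MC5-R, 0.2 nM for MC4-R and 0.1 nM for MC1-R. Bound radioactivity was gamma-counted after filtration; values are triplicate means, with results below 0% reported as 0%.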

[6] = Penile erection induction in male rats; type: in vivo; conditions: rat
Summary of the method: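 Male Sprague-Dawley rats (200-250 g), groups of 4-8, dosed IV or ICV at various doses and observed individually for penile erections. Only statistically relevant increases over vehicle-control mean PEs count as induction; IV responses below 1.0 PEs/rat treated as equivocal, some retested ICV.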

MC4-R [7] = target: T4, MC4-R; experiment: cAMP agonist stimulation, low receptor density system (0.1 ng/mL doxycycline); conditions: 0.1 ng/mL doxycycline, low receptor density hMC4-R system; NDP-α-MSH maximal cAMP = 1.0
MC5-R [8] = target: T2, MC5-R; experiment: Competitive inhibition assay using [I^125]-NDP-α-MSH, hMC5-R membranes; type: binding; set-up: expressed in transfected cells; conditions: 1 μM test compound; read-out: Inhibition at 1 μM (NDP-α-MSH) In Normal System, MC5-R
Summary of the method: as §3

MC1-R [9] = target: T1, MC1-R; experiment: Competitive inhibition assay using [I^125]-NDP-α-MSH, B-16 mouse melanoma cell membranes; type: binding; conditions: for inhibition at 1 µM: 1 μM test compound, read-out: Inhibition at 1 μM (NDP-α-MSH) In Normal System, MC1-R; for Ki: read-out: Ki (nM) (NDP-α-MSH) In Normal System, MC1-R
Summary of the method: as §3

MC4-R [10] = target: T4, MC4-R; experiment: cAMP agonist stimulation, high receptor density system (10 ng/mL doxycycline); conditions: for Efficacy/Intrinsic Activity: 10 ng/mL doxycycline, high receptor density hMC4-R system, NDP-α-MSH maximal cAMP = 1.0
MC3-R [11] = target: T3, MC3-R; experiment: Competitive inhibition assay using [I^125]-NDP-α-MSH, hMC3-R membranes; type: binding; set-up: expressed in transfected cells; conditions: 1 μM test compound; read-out: Inhibition at 1 μM (NDP-α-MSH) In Normal System, MC3-R
Summary of the method: as §3

T1 sequence (Q01727 whole entry): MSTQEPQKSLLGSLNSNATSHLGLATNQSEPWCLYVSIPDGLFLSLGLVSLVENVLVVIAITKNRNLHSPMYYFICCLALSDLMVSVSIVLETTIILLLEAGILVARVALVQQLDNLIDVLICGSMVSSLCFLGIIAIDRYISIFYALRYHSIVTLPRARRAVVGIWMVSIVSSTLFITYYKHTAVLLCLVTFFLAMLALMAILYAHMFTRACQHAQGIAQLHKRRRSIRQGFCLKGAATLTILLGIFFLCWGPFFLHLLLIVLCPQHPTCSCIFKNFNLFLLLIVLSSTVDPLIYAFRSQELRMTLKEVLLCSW

Row | Compound | functional status at MC1-R in cAMP assay (MC1-R [1]) | functional status at MC5-R in cAMP assay (MC5-R [2]) | functional status at MC3-R in cAMP assay (MC3-R [3]) | intrinsic activity at MC4-R in a normal system (MC4-R [4]) | functional status at MC4-R in cAMP assay (MC4-R [4]) | inhibition at 1 µM (MC4-R [5]) [%] | Penile Erection IV ([6]; IV) | penile erection response ([6]; IV, 0.3 to 30 μg/kg) | Efficacy/Intrinsic Activity (MC4-R [7]) | inhibition at 1 µM (MC5-R [8]) [%] | inhibition at 1 µM (MC1-R [9]) [%] | Ki (MC1-R [9]) [nM] | EC50 (MC4-R [10]) [nM] | Efficacy/Intrinsic Activity (MC4-R [10]) | inhibition at 1 µM (MC3-R [11]) [%] | Penile Erection ICV ([6]; ICV) | penile erection response ([6]; ICV, 0.01 to 10 nmol) | penile erection response ([6]; ICV, 0.01 to 10 nM)
1 | Cc1ccc(CCN2C[C@H](CCCNC(=N)N)N(C(=O)[C@H](N)Cc3ccc4ccccc4c3)C[C@H]2C)cc1 [Example 5, N-{3-[1-(2(R)-Amino-3-naphthalen-2-yl-propionyl)-5(R)-methyl-4-(2-p-tolyl-ethyl)-piperazin-2(S)-yl]-propyl}-guanidine] | partial agonist (intrinsic activity between 0.1 (10%) and 0.7 (70%) is classified as a partial agonist) | partial agonist (intrinsic activity between 0.1 (10%) and 0.7 (70%) is classified as a partial agonist) | no intrinsic activity (intrinsic activity below 0.1 (10%) is classified as inactive or having no intrinsic activity) | 0.6 | partial agonist (intrinsic activity between 0.1 (10%) and 0.7 (70%) is classified as a partial agonist) | 95 | No | no penile erection response | None | 65 | 32 | 135 | 117 | 0.46 | 61 |  |  | 
2 | C[C@@H]1CN(C(=O)[C@H](N)Cc2ccc3ccccc3c2)[C@@H](CCCNC(=N)N)CN1C(=O)CCCc1c[nH]c2ccccc12 [Example 7] | no intrinsic activity (intrinsic activity below 0.1 (10%) is classified as inactive or having no intrinsic activity) | no intrinsic activity (intrinsic activity below 0.1 (10%) is classified as inactive or having no intrinsic activity) | no intrinsic activity (intrinsic activity below 0.1 (10%) is classified as inactive or having no intrinsic activity) | 0.4 | partial agonist (intrinsic activity between 0.1 (10%) and 0.7 (70%) is classified as a partial agonist) | 88 |  |  | None | 62 | 0 | 1200 | 72 | 0.38 | 32 | No | no penile erection response | 
3 | Cc1[nH]c2ccccc2c1CCN1C[C@H](CCCNC(=N)N)N(C(=O)[C@H](N)Cc2ccc3ccccc3c2)C[C@H]1C [Example 8, N-(3-{1-(2(R)-Amino-3-naphthalen-2-yl-propionyl)-5(R)-methyl-4-[2-(2-methyl-1H-indol-3-yl)-ethyl]-piperazin-2(S)-yl}-propyl)-guanidine] | partial agonist (intrinsic activity between 0.1 (10%) and 0.7 (70%) is classified as a partial agonist) | agonist (intrinsic activity of 0.7 (70%) or higher is classified as an agonist) | no intrinsic activity (intrinsic activity below 0.1 (10%) is classified as inactive or having no intrinsic activity) | 0.9 | agonist (intrinsic activity of 0.7 (70%) or higher is classified as an agonist) | 95 |  |  | None | 76 | 73 | 148 |  | None | 57 | No |  | no penile erection response
4 | C[C@@H]1CN(C(=O)[C@H](N)Cc2ccc3ccccc3c2)[C@@H](CCCNC(=N)N)CN1C(=O)Cc1c[nH]c2ccccc12 [Example 6, N-{3-[1-(2(R)-Amino-3-naphthalen-2-yl-propionyl)-4-(2-1H-indol-3-yl-acetyl)-5(R)-methyl-piperazin-2(S)-yl]-propyl}-guanidine] | no intrinsic activity (intrinsic activity below 0.1 (10%) is classified as inactive or having no intrinsic activity) | partial agonist (intrinsic activity between 0.1 (10%) and 0.7 (70%) is classified as a partial agonist) | no intrinsic activity (intrinsic activity below 0.1 (10%) is classified as inactive or having no intrinsic activity) | 0.2 | partial agonist (intrinsic activity between 0.1 (10%) and 0.7 (70%) is classified as a partial agonist) | 90 | No | no penile erection response | None | 6 | 20 | 315 | 39 | 0.43 | 35 |  |  | 
